Results taken from BindingDB's records for doi:10.1021/jm950543x (University of Caen Normandy, 1996).

Assay: Binding affinity for 5-hydroxytryptamine 2C receptor

- IC50: 355 nM
Structure (SMILES): CN1CCN(c2nc3sccc3n3cccc23)CC1
